Measurements reported in the supplement of paper PMC12317010.
Counter-ions that a name gives are not always drawn.

Assay: collision cross section in nitrogen (drift tube, single-field); higher = larger gas-phase ion size
[1] = ion type: [M+H], ion source: APCI, ion mode: Positive
[2] = ion type: [M+H], ion source: ESI, ion mode: Positive
[3] = ion type: [M+Na], ion source: ESI, ion mode: Positive
[4] = ion source: APCI, ion mode: Positive, ion type: [M]+ (permanent cation)
[5] = ion source: ESI, ion mode: Positive, ion type: [M]+ (permanent cation)
[6] = ion type: [M-H], ion source: ESI, ion mode: Negative
[7] = ion type: [M+], ion source: APCI, ion mode: Positive
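Also: chemical standards at 10 µM analysed by drift tube IMS-QTOF MS in about 3.95 torr nitrogen, mean of duplicate injections differing ≤1%, mass error below 10 ppm.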

Row | SMILES | collision cross section in nitrogen [1] | collision cross section in nitrogen [2] | collision cross section in nitrogen [3] | collision cross section in nitrogen [6] | also measured
1 | COc1ccc(C(=CC(=O)N2CCOCC2)c2ccc(Cl)cc2)cc1OC [Dimethomorph] | 200.7 Å² | 199.2 Å² | 208 Å² |  | 
2 | c1ccc(C[n+]2cccc3ccccc32)cc1 [1-Benzylquinolinium chloride] |  |  |  |  | collision cross section in nitrogen [4]: 147.6 Å²; collision cross section in nitrogen [5]: 148 Å²
3 | Nc1cc(S(=O)(=O)O)ccc1S(=O)(=O)O [2-Aminobenzene-1,4-disulfonic acid] |  |  |  | 147.3 Å² | 
4 | CCCCOCCOC(=O)CCCCCCCCC(=O)OCCOCCCC [Bis(2-butoxyethyl) decanedioate] |  |  | 197.8 Å² |  | 
5 | COCCOC(=O)c1ccccc1C(=O)OCCOC [Di(2-methoxyethyl) phthalate] |  |  | 161.7 Å² |  | 
6 | NCCCN1CCN(CCCN)CC1 [1,4-Piperazinedipropanamine] | 150.3 Å² | 150.2 Å² |  |  | 
7 | Cc1cc(Cl)ccc1OCC(=O)O |  |  |  | 146.1 Å² | 
8 | Cc1cccc2nccnc12 [5-Methylquinoxaline] | 126.5 Å² |  |  |  | 
9 | Cc1ncc([N+](=O)[O-])n1C [1,2-Dimethyl-5-nitroimidazole] |  | 128 Å² |  |  | 
10 | CC1(C)CCC(Cc2ccc(Cl)cc2)C1(O)Cn1cncn1 (stereo not drawn) [Metconazole] | 169.3 Å² | 169.1 Å² | 176.1 Å² |  | 
11 | O=C(c1ccccc1)c1ccc(Cl)cc1 [4-Chlorobenzophenone] |  |  | 151.1 Å² |  | 
12 | CS(=O)(=O)c1ccc([C@@H](CC2CCCC2)C(=O)Nc2cnccn2)cc1Cl |  | 205.5 Å² | 207.9 Å² | 202.7 Å² | 
13 | CN1[C@@H]2C[C@@H](OC(=O)[C@H](CO)c3ccccc3)C[C@H]1[C@@H]1O[C@@H]12 [Scopolamine hydrochloride] | 172.2 Å² | 171.7 Å² |  |  | 
14 | Cc1c(C(=O)NCCO)[n+]([O-])c2ccccc2[n+]1[O-] [Olaquindox] |  |  |  | 161.2 Å² | 
15 | C[N+](C)(C)CCO [Choline hydroxide] |  |  |  |  | collision cross section in nitrogen [5]: 117.7 Å²
16 | COc1cc2c(cc1OC)[C@@]13CCN4CC5=CCO[C@H]6CC(=O)N2[C@H]1[C@H]6[C@H]5C[C@H]43 [Brucine] | 191.3 Å² | 194.1 Å² | 204.6 Å² |  | 
17 | COCc1nnc(-c2ccc[n+]([O-])c2)n1-c1c(Cl)c(Cl)cc2[nH]c(=O)c(=O)[nH]c12 |  | 193.1 Å² | 193.2 Å² | 190.9 Å² | 
18 | O=c1[nH]c(=O)n([C@H]2CCCO2)cc1F [(R)-Tegafur] |  |  |  | 142.2 Å² | 
19 | CC(=O)Nc1cc(S(=O)(=O)O)cc2cc(S(=O)(=O)O)c(N=Nc3ccccc3)c(O)c12 [C.I. Acid Red 1] |  |  |  | 210.2 Å² | 
20 | CNC(=O)ON=C(CSC)C(C)(C)C |  |  | 160.6 Å² |  | 
21 | Cc1c(-c2cccnc2)c2ccccc2n1CCCCC(=O)O | 176.6 Å² | 176.7 Å² |  | 183.7 Å² | 
22 | O=[N+]([O-])c1ccc([As](=O)(O)O)cc1 [Nitarsone] |  | 144.4 Å² |  | 138.9 Å² | 
23 | c1ccc2c(c1)ccc1cc3c(ccc4ccccc43)cc12 [Dibenz[a,h]anthracene] |  |  |  |  | collision cross section in nitrogen [7]: 160 Å²
24 | CCOc1cccc(-n2cc(C(=O)N3CCN(c4cc(C(=O)O)c5ccccc5c4)CC3)nc2-c2ccc(C)cc2)c1 | 228.4 Å² | 228.8 Å² | 233.2 Å² | 232.5 Å² | 
25 | Clc1cccc(Cl)c1Cl [1,2,3-Trichlorobenzene] |  |  | 144.8 Å² |  | 
26 | Cc1c2ccccc2c(C)c2c1ccc1ccccc12 [7,12-Dimethylbenz[a]anthracene] |  |  |  |  | collision cross section in nitrogen [7]: 155.2 Å²
27 | CCCCCCCCCCCCCCCC[N+](C)(C)Cc1ccccc1 [Benzalkonium chloride C16 (BAC C16)] |  |  |  |  | collision cross section in nitrogen [4]: 208.9 Å²
28 | O=c1cc(-c2ccccc2)oc2c1ccc1ccccc12 [alpha-Naphthoflavone] | 161.7 Å² | 160.7 Å² | 185.7 Å² |  | 

Row | SMILES | collision cross section in nitrogen [1] | collision cross section in nitrogen [2] | collision cross section in nitrogen [3] | collision cross section in nitrogen [6] | also measured
29 | CC(C)(C)c1ccc(N)cc1 [4-tert-Butylaniline] | 147.3 Å² | 147.6 Å² |  |  | 
30 | CCc1cccc(C)c1N(C(=O)CCl)[C@@H](C)COC [S-Metolachlor] | 159.5 Å² | 160.1 Å² | 172.5 Å² |  | 
31 | CCCCCCCCCCOS(=O)(=O)O [Sodium decyl sulfate] |  |  |  | 158.1 Å² | 
32 | CCCCOc1ccc(N)cc1 [4-Butyloxyaniline] |  | 153.5 Å² |  |  | 
33 | CC1=C(C(=O)Nc2ccccc2)S(=O)(=O)CCO1 [Oxycarboxin] |  |  | 168.9 Å² |  | 
34 | CC1CN(c2cc3c(cc2F)c(=O)c(C(=O)O)cn3-c2ccc(F)cc2F)CCN1 (stereo not drawn) [Temafloxacin] |  | 193 Å² | 211.3 Å² | 209.4 Å² | 
35 | Cc1nc(-c2ccccn2)ncc1C(=O)Nn1cc(C)c2cc(F)ccc21 | 184.3 Å² | 184.3 Å² | 181.8 Å² | 193.9 Å² | collision cross section in nitrogen [7]: 190.7 Å²
36 | Nc1ccc(N=Nc2ccccc2)c(N)n1 [Phenazopyridine hydrochloride] | 150 Å² | 150.3 Å² |  | 148.1 Å² | 
37 | Nc1ccc(Nc2ccccc2)cc1 [N-Phenyl-1,4-benzenediamine] | 143.1 Å² |  |  |  | 
38 | Cc1cc(O)cc(C)c1Cl [4-Chloro-3,5-dimethylphenol] |  |  |  | 131.7 Å² | 
39 | NC(=O)Nc1ccc(Cl)c(Cl)c1 [N-(3,4-Dichlorophenyl)urea] |  |  |  | 135.7 Å² | 
40 | C=C1C[C@H]2[C@@H]3C=C(C)C4=CC(=O)CC[C@]4(C)[C@H]3CC[C@]2(C)[C@@]1(OC(C)=O)C(C)=O [Melengestrol acetate] | 201.5 Å² | 200.3 Å² |  |  | 
41 | O=C1OC2(c3ccccc31)c1cc(I)c(O)c(I)c1Oc1c2cc(I)c(O)c1I [FD&C Red 3] | 211.7 Å² | 211.4 Å² |  | 217.9 Å² | 
42 | N#Cc1ccc(C(c2ccc(C#N)cc2)n2cncn2)cc1 [4,4'-(1H-1,2,4-Triazol-1-ylmethylene)dibenzonitrile] |  |  |  | 166.5 Å² | 
43 | CC(C)C(=O)OCC(C)(C)C(O)C(C)C (stereo not drawn) [Texanol] |  |  | 161.4 Å² |  | 
44 | CCCCCCCCCCCC(=O)OCC(O)CO (stereo not drawn) [1-Monolaurin] |  |  | 176.3 Å² |  | 
45 | CCN(CCO)c1cccc(C)c1 [2-(N-Ethyl-m-toluidino)ethanol] | 140 Å² | 140.6 Å² |  |  | 
46 | Cc1c(C2(c3cc(Br)c(O)c(Br)c3C)OS(=O)(=O)c3ccccc32)cc(Br)c(O)c1Br [Bromcresol green] |  |  |  | 217 Å² | 
47 | COc1cc(OC)nc(Sc2cccc(Cl)c2C(=O)O)n1 [Pyrithiobac sodium] | 166.7 Å² | 166.6 Å² | 173.5 Å² |  | 
48 | O=c1[nH]cc(S(=O)(=O)Cl)c(=O)[nH]1 [2,4-Dioxo-1,2,3,4-tetrahydropyrimidine-5-sulfonyl chloride] |  | 140.8 Å² |  |  | 
49 | Cc1ccc(O)c(-n2nc3ccccc3n2)c1 [2-(2H-Benzotriazol-2-yl)-4-methylphenol] |  |  |  | 155.4 Å² | 
50 | c1ccc(Nc2ccc3ccccc3c2)cc1 [N-Phenyl-2-naphthylamine] | 150 Å² | 151.3 Å² |  |  | collision cross section in nitrogen [7]: 149.2 Å²
51 | O=C(O)c1cccc(Oc2ccccc2)c1 [3-Phenoxybenzoic acid] |  |  |  | 155.6 Å² | 
52 | CCCC/C=C\CCCCCCCCCC=O [(Z)-11-Hexadecenal] |  |  |  | 163.6 Å² | 
53 | CC(CCl)OP(=O)(OC(C)CCl)OC(C)CCl (stereo not drawn) [Tris(2-chloroisopropyl)phosphate] |  |  | 171.9 Å² |  | 
54 | CC(=O)c1sc(C)nc1C [1-(2,4-Dimethyl-1,3-thiazol-5-yl)ethanone] | 129.2 Å² |  |  |  | 
55 | Cc1cnc(NC(=O)C2=C(O)c3ccccc3S(=O)(=O)N2C)s1 [Meloxicam] | 179.2 Å² | 178.5 Å² | 184.2 Å² | 177.7 Å² | 
